Where “and” joins values, the source holds several entries; their conditions need not be identical. Equal values may be shown once. Inconclusive results and toxic doses are left out. The calls were made as follows: active = survival T/C of 150% or more; inactive = T/C below 125% in these data.
System: P388 leukemia ip, CD2F1 mice, survival T/C
Assay: NCI In Vivo Anticancer Drug Screen. Data for tumor model P388 Leukemia (intraperitoneal) in CD2F1 (CDF1) mice
Conditions: endpoint: median survival time, higher = longer survival
Method in brief: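 Mice carrying the transplanted tumor received test compound or vehicle. Survival was recorded in each group, and the value is the treated-group measurement divided by that of the vehicle-treated control group.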

[1] = dose: 50.0 mg/kg/injection, schedule: Q01DX009 (ip), vehicle: saline
[2] = dose: 100.0 mg/kg/injection, schedule: Q01DX009 (ip), vehicle: saline
[3] = dose: 200.0 mg/kg/injection, schedule: Q01DX009 (ip), vehicle: saline
[4] = dose: 50.0 mg/kg/injection, schedule: Q01DX009 (ip), vehicle: Klucel (hydroxypropylcellulose) (HPC)
[5] = dose: 100.0 mg/kg/injection, schedule: Q01DX009 (ip), vehicle: Klucel (hydroxypropylcellulose) (HPC)
[6] = dose: 200.0 mg/kg/injection, schedule: Q01DX009 (ip), vehicle: Klucel (hydroxypropylcellulose) (HPC)
[7] = dose: 50.0 mg/kg/injection, schedule: Q01DX005 (ip), vehicle: Klucel (hydroxypropylcellulose) (HPC)
[8] = dose: 100.0 mg/kg/injection, schedule: Q01DX005 (ip), vehicle: Klucel (hydroxypropylcellulose) (HPC)
[9] = dose: 200.0 mg/kg/injection, schedule: Q01DX005 (ip), vehicle: Klucel (hydroxypropylcellulose) (HPC)
[10] = dose: 50.0 mg/kg/injection, schedule: Q01DX009 (ip), vehicle: saline with Tween-80
[11] = dose: 100.0 mg/kg/injection, schedule: Q01DX009 (ip), vehicle: saline with Tween-80
[12] = dose: 200.0 mg/kg/injection, schedule: Q01DX009 (ip), vehicle: saline with Tween-80

Measured: T/C

COP(=O)(OC)OC.COP(=O)(OC)OC.COP(=O)(OC)OC.COP(=O)(OC)OC.COP(=O)(OC)OC.COP(=O)(OC)OC.[Mn+2].[O-][Cl+3]([O-])([O-])O
inactive: [1] 99 % of control and 100 % of control | [2] 111 % of control | [3] 109 % of control | dose: 400.0 mg/kg/injection, schedule: Q01DX009 (ip), vehicle: saline 123 % of control

CN(C)c1ccc(N=Nc2cc3c4ccccc4ccc3c3ccccc23)cc1
inactive: [4] 109 % of control | [5] 114 % of control | [6] 117 % of control

CCC(c1ccc(OCC(=O)N(CCCl)CCCl)cc1)C(CC)c1ccc(OCC(=O)N(CCCl)CCCl)cc1 (stereo unspecified)
inactive: dose: 100.0 mg/kg/injection, schedule: Q04DX002 (ip), vehicle: suspension in saline 98 % of control | dose: 200.0 mg/kg/injection, schedule: Q04DX002 (ip), vehicle: suspension in saline 97 % of control | dose: 400.0 mg/kg/injection, schedule: Q04DX002 (ip), vehicle: suspension in saline 103 % of control

CS(=O)(=O)/C=C/c1ccc[nH]1
inactive: [4] 98 % of control | [5] 99 % of control | [6] 99 % of control

Cc1ccc(S(=O)(=O)/C(=N\O)c2ccc(Cl)cc2)cc1
inactive: [7] 96 % of control | [8] 107 % of control | [9] 95 % of control

c1cncc(-c2n[nH]c3c2CCCc2ccccc2-3)c1
inactive: dose: 12.5 mg/kg/injection, schedule: Q01DX009 (ip), vehicle: other 107 % of control | dose: 25.0 mg/kg/injection, schedule: Q01DX009 (ip), vehicle: other 100 % of control | dose: 50.0 mg/kg/injection, schedule: Q01DX009 (ip), vehicle: other 107 % of control | dose: 100.0 mg/kg/injection, schedule: Q01DX009 (ip), vehicle: other 96 % of control | dose: 200.0 mg/kg/injection, schedule: Q01DX009 (ip), vehicle: other 105 % of control

C=CCNC(=S)Nc1ccccc1C(=O)c1ccccc1
inactive: [10] 104 % of control | [11] 103 % of control | [12] 103 % of control

CC(C)(C)CC(C)(C)NCC(O)COc1ccc(C(C)(C)c2ccc(OCC(O)CNC(C)(C)CC(C)(C)C)cc2)cc1 (stereo unspecified)
inactive: dose: 3.13 mg/kg/injection, schedule: Q01DX009 (ip), vehicle: other 104 % of control | dose: 3.13 mg/kg/injection, schedule: Q04DX003 (ip), vehicle: other 108 % of control | dose: 6.25 mg/kg/injection, schedule: Q01DX009 (ip), vehicle: other 90 % of control | dose: 6.25 mg/kg/injection, schedule: Q04DX003 (ip), vehicle: other 100 % of control

COc1ccc([N+](=O)[O-])cc1Nc1c2ccccc2nc2ccccc12
inactive: dose: 50.0 mg/kg/injection, schedule: Q01DX009 (ip), vehicle: suspension in saline 100 % of control | dose: 100.0 mg/kg/injection, schedule: Q01DX009 (ip), vehicle: suspension in saline 110 % of control | dose: 200.0 mg/kg/injection, schedule: Q01DX009 (ip), vehicle: suspension in saline 101 % of control

O=[N+]([O-])c1ccc2nc3ccccc3cc2c1
inactive: dose: 50.0 mg/kg/injection, schedule: Q04DX003 (ip), vehicle: saline 112 % of control | dose: 100.0 mg/kg/injection, schedule: Q04DX003 (ip), vehicle: saline 96 % of control | dose: 200.0 mg/kg/injection, schedule: Q04DX003 (ip), vehicle: saline 96 % of control | dose: 400.0 mg/kg/injection, schedule: Q04DX003 (ip), vehicle: saline 93 % of control

Cc1nn(-c2ccccc2)c(N)c1C#N
inactive: dose: 50.0 mg/kg/injection, schedule: Q04DX003 (ip), vehicle: Klucel (hydroxypropylcellulose) (HPC) 104 % of control | dose: 100.0 mg/kg/injection, schedule: Q04DX003 (ip), vehicle: Klucel (hydroxypropylcellulose) (HPC) 107 % of control | dose: 200.0 mg/kg/injection, schedule: Q04DX003 (ip), vehicle: Klucel (hydroxypropylcellulose) (HPC) 106 % of control | dose: 400.0 mg/kg/injection, schedule: Q04DX003 (ip), vehicle: Klucel (hydroxypropylcellulose) (HPC) 104 % of control

c1ccc2c(SCCCSc3c4ccccc4nc4ccccc34)c3ccccc3nc2c1
inactive: dose: 60.0 mg/kg/injection, schedule: Q01DX005 (ip), vehicle: Klucel (hydroxypropylcellulose) (HPC) 97 % of control | dose: 120.0 mg/kg/injection, schedule: Q01DX005 (ip), vehicle: Klucel (hydroxypropylcellulose) (HPC) 91 % of control | dose: 240.0 mg/kg/injection, schedule: Q01DX005 (ip), vehicle: Klucel (hydroxypropylcellulose) (HPC) 95 % of control

CCC(CC)C(=O)NN(C)C
inactive: dose: 50.0 mg/kg/injection, schedule: Q01DX005 (ip), vehicle: saline 101 % of control | dose: 100.0 mg/kg/injection, schedule: Q01DX005 (ip), vehicle: saline 100 % of control

C=C(C)CC(C)/C(=N\N(C)C)c1ccccc1 (stereo unspecified)
inactive: [1] 98 % of control | [2] 100 % of control | [3] 100 % of control

O=C1C2CC34CCCN5CC1C1(c6ccccc6NC21CC3)C54 (stereo unspecified)
inactive: dose: 12.5 mg/kg/injection, schedule: Q01DX005 (ip), vehicle: Klucel (hydroxypropylcellulose) (HPC) 103 % of control | dose: 25.0 mg/kg/injection, schedule: Q01DX005 (ip), vehicle: Klucel (hydroxypropylcellulose) (HPC) 98 % of control | [7] 103 % of control

O=C(CNCCCCNCCCNCC(=O)C(O)C(O)C(O)CO)C(O)C(O)C(O)CO (stereo unspecified)
inactive: dose: 30.0 mg/kg/injection, schedule: Q01DX005 (ip), vehicle: saline 104 % of control | dose: 60.0 mg/kg/injection, schedule: Q01DX005 (ip), vehicle: saline 101 % of control

NC(=O)Nc1nc(C(F)(F)F)cc(=O)[nH]1
inactive: [10] 103 % of control | [11] 106 % of control | [12] 99 % of control

COCc1cnc2nc(N)nc(N)c2n1
inactive: dose: 0.39 mg/kg/injection, schedule: Q01DX009 (ip), vehicle: distilled water + Tween-80 99 % of control | dose: 0.78 mg/kg/injection, schedule: Q01DX009 (ip), vehicle: distilled water + Tween-80 99 % of control | dose: 1.56 mg/kg/injection, schedule: Q01DX009 (ip), vehicle: distilled water + Tween-80 104 % of control | dose: 3.13 mg/kg/injection, schedule: Q01DX009 (ip), vehicle: distilled water + Tween-80 110 % of control

COc1ccc(OC)c(NC=O)c1
inactive: dose: 12.5 mg/kg/injection, schedule: Q01DX009 (ip), vehicle: saline with Tween-80 98 % of control and 86 % of control | dose: 25.0 mg/kg/injection, schedule: Q01DX009 (ip), vehicle: saline with Tween-80 98 % of control and 93 % of control and 97 % of control | [10] 104 % of control and 97 % of control | [11] 99 % of control and 100 % of control and 97 % of control

CC1(C)CC(=O)c2c(oc3ccc(O)cc23)C1
inactive: [7] 97 % of control | [8] 97 % of control | [9] 92 % of control
